Among the data in patent US6828315B1, “1-Amino triazoloc4,3-a! quinazoline-5-ones and/or -5-thiones inhibiting phosphodiesterase IV” (Warner-Lambert LLC, priority 1999, dated 2004) are melting point and IC50 values, retold here.

Data set [1] addresses type 4 phosphodiesterases (PDE4). Briefly: Inhibition of the phosphodiesterase (PDE4), enzymatic preparation from line U937. The following applies: PDE4 from cytosolic preparation of human cell line U937. The format is biochemical. Here is the method: The capacity of the formula (I) compounds of the invention to inhibit the cyclic nucleotide phosphodiesterases is evaluated by their Cl50 measurement (necessary concentration to inhibit 50% of enzymatic activity).
The type 4 phosphodiesterases are obtained from a cytosolic preparation extracted from the human origin cellular line U937 according to a method adapted from T. J. Torphy and al., 1992, J.Pharm.Exp. Ther. 263: 1195-1205
The other classes of phosphodiesterases are obtained after partial purification FPLC on Mono Q column. (anion exchange column) according to a method adapted from Lavan B. E., Lakey T., Houslay M. D. Biochemical Pharmacology, 1989, 38(22), 4123-4136., and from Silver P. J and al., 1988, Eur.J. Pharmacol. 150: 85-94, either, from human origin cellular lines for PDE 1 (monocytar line TPH1) and PDE5 (line MCF7 issued from an adenocarcinoma), or from dog aorta for PDE 3, or for the human PDE3A, from gene cloning in insect cells SF21 in baculovirus, according to a method adapted from Luckow, V. A. and al., 1991 in Recombinant DNA Technology&Applications.,eds. Prokop, Bajpai,R. K.&Ho,C. S., pp97-152. The enzymatic activity measurement of the different PDE classes, and in particular the PDE 4, is performed according to a method adapted from W. J. Thompson and al. 1979, Advances in Cyclic Nucleotide Research, Vol. 10: 69-92, ed. G. Brooker and al. Raven Press, NY.
For the Cl50 determination, the enzymatic activity is measured in the presence of inhibitor within concentration margins of 0.1 to 100 μM.
The following table illustrates the PDE4 inhibitory activity from enzymatic preparation obtained from the line U937.

`O=c1c2cc(Cl)ccc2n2c(N3CCCCCC3)nnc2n1Cc1ccc(F)cc1` [Compound 13, 1-(azepan-1-yl)-7-chloro-4-(4-fluorobenzyl)-4H-[1,2,4]triazolo[4,3-a]quinazolin-5-one] returned a melting point of 150 °C. The molecule further yielded an IC50 in data set [1] of 60 nM.
For `COc1ccc(Cn2c(=O)c3cc(Cl)ccc3n3c(N4CCCCCC4)nnc23)cc1OC` [Compound 20, 1-(azepan-1-yl)-7-chloro-4-(3,4-dimethoxybenzyl)-4H-[1,2,4]triazolo[4,3-a]quinazolin-5-one], the melting point came out at 172 °C. Further, in data set [1], the 50% inhibitory concentration (IC50) amounted to 40 nM.
As to `O=c1c2cc(Cl)ccc2n2c(N3CCCCCC3)nnc2n1Cc1cccnc1` [Compound 22, 1-(azepan-1-yl)-7-chloro-4-(3-pyridylmethyl)-4H-[1,2,4]triazolo[4,3-a]quinazolin-5-one], the melting point came out at 155 °C. Also, the IC50 in data set [1] amounted to 410 nM.
In the same order, the values of `O=c1c2cc(Br)ccc2n2c(N3CCCCCC3)nnc2n1Cc1ccc(Cl)cc1` [Compound 32, 1-(azepan-1-yl)-7-bromo-4-(4-chloro-benzyl)-4H-[1,2,4]triazolo[4,3-a]quinazolin-5-one] are 179 °C and 53 nM.
The corresponding values for `N#Cc1ccc(Cn2c(=O)c3cc(Br)ccc3n3c(N4CCCCCC4)nnc23)cc1` [Compound 34, 4-(1-Azepan-1-yl-7-bromo-5-oxo-5H-[1,2,4]triazolo[4,3-a]quinazolin-4-ylmethyl)-benzonitrile] are 190 °C and 56 nM.
`O=c1c2cc(Br)ccc2n2c(N3CCCCCC3)nnc2n1CC=Cc1ccccc1` [Compound 37, 1-(azepan-1-yl)-7-bromo-4-(3-phenylallyl)-4H-[1,2,4]triazolo[4,3-a]quinazolin-5-one] gave a melting point of 155 °C. Moreover, the IC50 in data set [1] is 15 nM.
In the case of `O=c1c2cc(Br)ccc2n2c(N3CCCCCC3)nnc2n1C/C=C/c1cccnc1` [Compound 40, 1-Azepan-1-yl-7-bromo-4-((E)-3-pyridin-3-yl-allyl)-4H-[1,2,4]triazolo[4,3-a]quinazolin-5-one], the melting point was found to be 185 °C. For the same molecule, the IC50 in data set [1] is 14 nM.
The corresponding values for `O=c1c2cc(Br)ccc2n2c(N3CCCCCC3)nnc2n1CC=Cc1ccncc1` [Compound 41, 1-Azepan-1-yl-7-bromo-4-(3-pyridin-4-yl-allyl)-4H-[1,2,4]triazolo[4,3-a]quinazolin-5-one] are 216 °C and 18 nM.
In the same order, the values of `Cc1ccc(Cn2c(=O)c3cc(Br)ccc3n3c(N4CCCC4)nnc23)cc1` [Compound 42, 7-Bromo-4-(4-methyl-benzyl)-1-pyrrolidin-1-yl-4H-[1,2,4]triazolo[4,3-a]quinazolin-5-one] are 215 °C and 24 nM.
The corresponding values for `O=c1c2cc(Br)ccc2n2c(N3CCCC3)nnc2n1Cc1ccc(Cl)cc1` [Compound 43, 7-Bromo-4-(4-chloro-benzyl)-1-pyrrolidin-1-yl-4H-[1,2,4]triazolo[4,3-a]quinazolin-5-one] are 105 °C and 30 nM.
`O=c1c2cc(Br)ccc2n2c(N3CCCC3)nnc2n1Cc1ccc(F)cc1` [Compound 44, 7-Bromo-4-(4-fluoro-benzyl)-1-pyrrolidin-1-yl-4H-[1,2,4]triazolo[4,3-a]quinazolin-5-one] displayed a melting point of 166 °C. For the same molecule, the IC50 in data set [1] turned out to be 90 nM.
In the case of `COC(=O)c1ccc(Cn2c(=O)c3cc(Br)ccc3n3c(N4CCCC4)nnc23)cc1` [Compound 47, 4-(7-Bromo-5-oxo-1-pyrrolidin-1-yl-5H-[1,2,4]triazolo[4,3-a]quinazolin-4-ylmethyl)-benzoic acid methyl ester], the melting point worked out at 205 °C. In addition, the IC50 in data set [1] was 50 nM.
In turn, `O=c1c2cc(Br)ccc2n2c(N3CCCC3)nnc2n1Cc1ccc([N+](=O)[O-])cc1` [Compound 48, 7-Bromo-4-(4-nitro-benzyl)-1-pyrrolidin-1-yl-4H-[1,2,4]triazolo[4,3-a]quinazolin-5-one] returned a melting point of 200 °C. In data set [1], this molecule had a concentration for half-maximal inhibition (IC50) of 25 nM.
As to `COc1ccc(Cn2c(=O)c3cc(Br)ccc3n3c(N4CCCC4)nnc23)cc1` [Compound 49, 7-Bromo-4-(4-methoxy-benzyl)-1-pyrrolidin-1-yl-4H-[1,2,4]triazolo[4,3-a]quinazolin-5-one], the melting point is 169 °C. The same molecule gave an IC50 in data set [1] of 80 nM.
The corresponding values for `CC(=O)Oc1ccc(Cn2c(=O)c3cc(Br)ccc3n3c(N4CCCC4)nnc23)cc1` [Compound 50, Acetic acid 4-(7-bromo-5-oxo-1-pyrrolidin-1-yl-5H-[1,2,4]triazolo[4,3-a]quinazolin-4-ylmethyl)-phenyl ester] are 195 °C and 35 nM.
`O=c1c2cc(Br)ccc2n2c(N3CCCC3)nnc2n1Cc1ccc(O)cc1` [Compound 51, 7-Bromo-4-(4-hydroxy-benzyl)-1-pyrrolidin-1-yl-4H-[1,2,4]triazolo[4,3-a]quinazolin-5-one] displayed a melting point of 288 °C. This molecule registered an IC50 in data set [1] of 27 nM.
The corresponding values for `COc1ccc(Cn2c(=O)c3cc(Br)ccc3n3c(N4CCCC4)nnc23)cc1OC` [Compound 52, 7-Bromo-4-(3,4-dimethoxy-benzyl)-1-pyrrolidin-1-yl-4H-[1,2,4]triazolo[4,3-a]quinazolin-5-one] are 151 °C and 30 nM.
The corresponding values for `O=c1c2cc(Br)ccc2n2c(N3CCCC3)nnc2n1CC=Cc1ccccc1` [Compound 57, 1-(pyrrolidin-1-yl)-7-bromo-4-(3-phenylallyl)-4H-[1,2,4]triazolo[4,3-a]quinazolin-5-one] are 152 to 155 °C and 14 nM.
The molecule `O=c1c2cc(Br)ccc2n2c(N3CCCC3)nnc2n1C/C=C/c1ccc(Cl)cc1` [Compound 59, 7-Bromo-4-[(E)-3-(4-chloro-phenyl)-allyl]-1-pyrrolidin-1-yl-4H-[1,2,4)triazolo[4,3-a]quinazolin-5-one] returned a melting point of 187 °C. In data set [1], this molecule gave an IC50 of 90 nM.
The corresponding values for `COc1ccc(C=CCn2c(=O)c3cc(Br)ccc3n3c(N4CCCC4)nnc23)cc1` [Compound 60, 7-Bromo-4-[3-(4-methoxy-phenyl)-allyl]-1-pyrrolidin-1-yl-4H-[1,2,4]triazolo[4,3-a]quinazolin-5-one] are 171 °C and 50 nM.
In the same order, the values of `O=c1c2cc(Br)ccc2n2c(N3CCCC3)nnc2n1CC=Cc1cccnc1` [Compound 61, 7-Bromo-4-(3-pyridin-3-yl-allyl)-1-pyrrolidin-1-yl-4H-[1,2,4]triazolo[4,3-a]quinazolin-5-one] are 102 °C and 11 nM.
In the case of `O=c1c2cc(Br)ccc2n2c(N3CCCC3)nnc2n1C/C=C/c1ccncc1` [Compound 62, 7-Bromo-4-((E)-3-pyridin-4-yl-allyl)-1-pyrrolidin-1-yl-4H-[1,2,4]triazolo[4,3-a]quinazolin-5-one], the melting point turned out to be 167 °C. In data set [1], this molecule came in with an IC50 of 53 nM.
In the same order, the values of `COc1ccc(Cn2c(=O)c3cc(Br)ccc3n3c(N4CCCCC4)nnc23)cc1OC` [Compound 75, 7-Bromo-4-(3,4-dimethoxy-benzyl)-1-piperidin-1-yl-4H-[1,2,4]triazolo[4,3-a]quinazolin-5-one] are 178 °C and 78 nM.
In the same order, the values of `Cc1ccc(Cn2c(=O)c3cc(Br)ccc3n3c(N(C)C)nnc23)cc1` [Compound 78, 7-Bromo-1-dimethylamino-4-(4-methyl-benzyl)-4H-[1,2,4]triazolo[4,3-a]quinazolin-5-one] are 223 °C and 38 nM.
In the same order, the values of `CN(C)c1nnc2n(Cc3ccc(O)cc3)c(=O)c3cc(Br)ccc3n12` [Compound 80, 7-Bromo-1-dimethylamino-4-(4-hydroxy-benzyl)-4H-[1,2,4]triazolo[4,3-a]quinazolin-5-one] are 284 °C and 73 nM.
Take `COC(=O)c1ccc(Cn2c(=O)c3cc(Br)ccc3n3c(N(C)C)nnc23)cc1` [Compound 81, 4-(7-Bromo-1-dimethylamino-5-oxo-5H-[1,2,4]triazolo[4,3-a]quinazolin-4-ylmethyl)-benzoic acid methyl ester]: the melting point is 197 °C. The molecule also had an IC50 in data set [1] of 16 nM.
In the same order, the values of `CN(C)c1nnc2n(Cc3ccc(CC#N)cc3)c(=O)c3cc(Br)ccc3n12` [Compound 83, [4-(7-Bromo-1-dimethylamino-5-oxo-5H-[1,2,4]triazolo[4,3-a]quinazolin-4-ylmethyl)-phenyl]-acetonitrile] are 230 °C and 12 nM.
The molecule `CN(C)c1nnc2n(CC#Cc3ccccc3)c(=O)c3cc(Br)ccc3n12` [Compound 89, 7-Bromo-1-dimethylamino-4-(3-phenyl-prop-2-ynyl)-4H-[1,2,4]triazolo[4,3-a]quinazolin-5-one] returned a melting point of 159 °C. The molecule also had an IC50 in data set [1] of 27 nM.
